Results as given in the supplement of paper PMC10307832.

What was measured:
Assay in all cases: relative viability (nuclei count vs DMSO), 5 days (fraction); higher = more cells survive
Kobe2602 + Linsitinib = compound: C1=CC(=CC=C1NC(=S)NNC2=C(C=C(C=C2[N+](=O)[O-])C(F)(F)F)[N+](=O)[O-])F [Kobe2602] + C[C@]1(O)C[C@@H](c2nc(-c3ccc4ccc(-c5ccccc5)nc4c3)c3c(N)nccn32)C1 [Linsitinib] (partner 1 µM)
Procedure, shortened: (§1)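 Each reported value is a median over duplicate plates. It expresses relative viability: treated-well nuclei count divided by vehicle-well nuclei count. Lung cancer cell lines in 1536-well plates were dosed by pin tool a day after seeding, alone with one drug or with a fixed anchor-drug dose plus five library-drug doses (not always all listed) in √10 steps, and nuclei were counted after 5 days.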

[1] = compound: COc1cc2nccc(Oc3ccc(NC(=O)C4(C(=O)Nc5ccc(F)cc5)CC4)cc3)c2cc1OC [Cabozantinib] + CC1(C)CCC(c2ccc(Cl)cc2)=C(CN2CCN(c3ccc(C(=O)NS(=O)(=O)c4ccc(N[C@H](CCN5CCOCC5)CSc5ccccc5)c(S(=O)(=O)C(F)(F)F)c4)cc3)CC2)C1 [Navitoclax] (partner 0.5 µM)
Procedure, shortened: as §1

Zosuquidar + Foretinib = compound: O[C@@H](COc1cccc2ncccc12)CN1CCN([C@@H]2c3ccccc3[C@@H]3[C@H](c4ccccc42)C3(F)F)CC1 [Zosuquidar] + COc1cc2c(Oc3ccc(NC(=O)C4(C(=O)Nc5ccc(F)cc5)CC4)cc3F)ccnc2cc1OCCCN1CCOCC1 [Foretinib] (partner 0.25 µM)
Procedure, shortened: as §1

Zosuquidar + Alpelisib = compound: O[C@@H](COc1cccc2ncccc12)CN1CCN([C@@H]2c3ccccc3[C@@H]3[C@H](c4ccccc42)C3(F)F)CC1 [Zosuquidar] + Cc1nc(NC(=O)N2CCC[C@H]2C(N)=O)sc1-c1ccnc(C(C)(C)C(F)(F)F)c1 [Alpelisib] (partner 2 µM)
Procedure, shortened: as §1

Cell Line	relative viability (Kobe2602 + Linsitinib; first compound 0.2 µM)	relative viability (Kobe2602 + Linsitinib; first compound 0.6325 µM)	relative viability (Kobe2602 + Linsitinib; first compound 2 µM)	relative viability (Kobe2602 + Linsitinib; first compound 6.325 µM)	relative viability (Kobe2602 + Linsitinib; first compound 20 µM)	relative viability ([1]; first compound 0.02 µM)	relative viability ([1]; first compound 0.06325 µM)	relative viability ([1]; first compound 0.2 µM)	relative viability ([1]; first compound 0.6325 µM)	relative viability ([1]; first compound 2 µM)	relative viability (Zosuquidar + Foretinib; first compound 0.01 µM)	relative viability (Zosuquidar + Foretinib; first compound 0.03162 µM)	relative viability (Zosuquidar + Foretinib; first compound 0.1 µM)	relative viability (Zosuquidar + Foretinib; first compound 0.3162 µM)	relative viability (Zosuquidar + Foretinib; first compound 1 µM)	relative viability (Zosuquidar + Alpelisib; first compound 0.01 µM)	relative viability (Zosuquidar + Alpelisib; first compound 0.03162 µM)	relative viability (Zosuquidar + Alpelisib; first compound 0.1 µM)	relative viability (Zosuquidar + Alpelisib; first compound 0.3162 µM)	relative viability (Zosuquidar + Alpelisib; first compound 1 µM)
201T	0.968	1.04	1.05	0.955	0.941	1.2	1.25	1.19	1.2	1.24	1.16	1.17	0.935	1.04	1.19	0.891	0.965	0.896	1.01	1.06
NCI-H2023	0.575	0.728	0.528	0.586	0.682	1.07	1.05	0.931	0.872	0.691	0.936	0.759	0.689	0.998	0.99	0.601	0.636	0.6	0.548	0.613
NCI-H1793	0.856	0.883	0.806	0.831	0.958	0.477	0.514	0.267	0.235	0.29	0.747	0.914	–	0.896	0.641	0.717	0.665	–	0.825	0.776
NCI-H2347	0.924	0.884	0.947	0.997	1.03	0.83	0.994	0.803	0.612	0.375	1.01	1.06	0.556	0.978	0.869	1.1	0.991	0.833	1.16	0.984
LXF-289	0.944	0.985	0.941	0.952	0.919	0.991	0.934	0.926	0.927	0.933	0.956	1.02	0.94	1.02	0.968	0.994	1.04	0.97	1.02	1.01
EKVX	1.02	1.02	0.919	0.971	1.03	0.899	1.1	0.879	1.03	1.07	0.692	0.734	0.589	0.954	0.748	0.887	0.846	0.634	0.781	0.94
IA-LM	0.506	0.462	0.632	0.476	0.573	1.1	0.912	1.02	1.01	0.965	1.09	1.23	1.26	1.34	1.17	0.818	0.908	0.714	0.909	0.773
NCI-H1734	0.895	0.899	0.849	0.964	0.897	0.8	0.832	0.85	0.818	0.667	0.816	0.868	0.775	0.938	0.817	0.815	0.666	0.631	0.809	0.643
LOU-NH91	0.997	0.983	1	0.922	0.965	0.72	0.845	0.441	0.666	0.7	0.882	0.857	–	0.936	0.91	0.702	0.717	0.6	0.718	0.725
SK-MES-1	1	1.26	1.04	1.07	1.07	1.28	1.24	1.22	1.23	1.19	0.891	0.872	0.879	1.05	0.94	0.876	0.95	0.692	1.07	0.987
NCI-H460	0.826	0.768	0.709	0.894	0.725	1.46	1.39	1.09	1.11	1.24	0.922	0.987	0.987	0.969	0.952	0.398	0.526	0.539	0.551	0.529
SK-LU-1	1.05	1.15	1.04	1.04	1.27	–	1.09	0.967	0.852	0.988	0.799	0.871	0.937	0.961	0.77	0.954	1.04	1.17	1.26	0.895
EPLC-272H	1.2	1.2	1.23	1.36	0.447	1.11	1.11	0.927	1.02	1.12	0.778	0.683	0.57	0.817	0.671	0.946	0.999	0.801	0.936	0.805
A-427	1.1	1.15	1.09	0.954	1.17	0.988	1.03	0.998	0.978	0.978	1.1	0.983	0.96	1.18	1.06	1.08	1.01	0.902	1.07	1.04
